{"source": "patent EP4800018A1", "about": "“PAN-KRAS INHIBITOR AND USE THEREOF IN MEDICINES” (Betta Pharmaceuticals Co., Ltd., priority 2023, dated 2025)", "key": {"[1]": {"experiment": "PK Study of Compounds in Rats", "format": "in vivo, Male SD rats", "details": "mean; for AUC(0-t): read-out: AUC0-t; for Cmax: read-out: C0/Cmax", "procedure": "(§1) The test compound was mixed with the vehicle (10% DMSO/5% Solutol/85% physiological saline), vortexed and sonicated to prepare a clear 0.5 mg/mL intravenous injection solution. The test compound was mixed with the vehicle (20% PEG400/10% Solutol/70% pH 4.5 acetate buffer), vortexed and sonicated to prepare a clear 1 mg/mL oral solution. Male SD rats aged 6 to 7 weeks were selected and administered the test compound via intravenous (IV) and oral (PO) routes, respectively. Whole blood samples were collected at 5 min, 15 min, 30 min, 1 h, 2 h, 4 h, 7 h, and 24 h for the intravenous route, and at 15 min, 30 min, 1 h, 2 h, 4 h, 7 h, and 24 h for the oral route. Drug concentrations were analyzed by LC-MS/MS method, and pharmacokinetic parameters were calculated using Phoenix WinNonlin software (Pharsight, USA)."}, "[2]": {"biological_target": "T1, KRAS G12V-cRAF (Homo sapiens, UniProt P01116, G12V)", "T1 construct": "expressed in transfected cells", "T1 sequence (P01116 1-188 isoform P01116-2 G12V)": "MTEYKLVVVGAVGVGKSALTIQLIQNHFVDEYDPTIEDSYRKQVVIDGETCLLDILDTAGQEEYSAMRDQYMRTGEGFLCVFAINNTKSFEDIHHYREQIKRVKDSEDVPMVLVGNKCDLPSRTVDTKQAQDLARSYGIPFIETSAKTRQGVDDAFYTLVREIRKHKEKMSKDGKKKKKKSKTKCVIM", "experiment": "Cellular KRAS G12V-cRAF Binding Inhibition Assay (NanoBRET, AD293 stable cells)", "format": "cell-based", "details": "3 h incubation, read-out: NanoBRET KRAS G12V", "procedure,_shortened": "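Binding measured as BRET between NanoLuc and HaloTag-bound NanoBRET 618 ligand (added overnight) in stably expressing AD293 cells. Signals were converted to percent inhibition against max and blank wells and fitted for IC50.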"}, "[3]": {"system": "KRAS-G12D mutant tumor cells AGS", "experiment": "Cell Proliferation Inhibition Assay (AGS), Cell-titer GLO, 96 h", "format": "cell-based", "details": "Homo sapiens, AGS, 96 h, AGS cells, 96 h incubation, Cell-titer GLO; read-out: AGS(G12D)", "procedure,_shortened": "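Inhibition % was derived from CellTiter-Glo luminescence (max minus measured, over max minus blank) and fitted to give IC50. Cells were KRAS-G12D AGS in low-attachment wells, treated for 96 h at 37°C.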"}, "[4]": {"experiment": "PK Study of Compounds in Mice", "format": "in vivo, Female ICR mice", "details": "mean; for Cmax: read-out: C0/Cmax", "procedure": "as §1, with “0.2” for “0.5”, “Female ICR mice” for “Male SD rats”"}, "[5]": {"biological_target": "T2, KRAS G12D-cRAF (Homo sapiens, UniProt P01116, G12D)", "T2 construct": "expressed in transfected cells", "T2 sequence (P01116 1-188 isoform P01116-2 G12D)": "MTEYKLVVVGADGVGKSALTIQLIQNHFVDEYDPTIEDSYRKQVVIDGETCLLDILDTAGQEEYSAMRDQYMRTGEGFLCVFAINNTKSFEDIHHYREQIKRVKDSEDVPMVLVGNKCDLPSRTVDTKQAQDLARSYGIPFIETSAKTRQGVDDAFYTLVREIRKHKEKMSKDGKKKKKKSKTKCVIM", "experiment": "Cellular KRAS G12D-cRAF Binding Inhibition Assay (NanoBRET, AD293 stable cells)", "format": "cell-based", "details": "3 h incubation, read-out: NanoBRET KRAS G12D", "procedure,_shortened": "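IC50 values derive from fitted % inhibition, normalised to maximum signal and medium-only blank. The read-out is NanoBRET between KRAS G12D-NanoLuc (donor) and cRAF RBD-HaloTag labelled with the 618 ligand (acceptor), in live stably transfected AD293 cells at 1×10^4/well.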"}, "[6]": {"system": "KRAS-G12V mutant tumor cells SW620", "experiment": "Cell Proliferation Inhibition Assay (SW620), Cell-titer GLO, 96 h", "format": "cell-based", "details": "Homo sapiens, SW-620, 96 h, SW620 cells, 96 h incubation, Cell-titer GLO; read-out: SW620(G12V)", "procedure,_shortened": "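Readout: Cell-titer GLO luminescence after 96 h at 37°C, converted to percent inhibition against 0.5% DMSO and blank controls, with IC50 from curve fit. Low-attachment SW620 cultures (1×10^3 cells/well) were dosed at 10000–0.03 nM final.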"}, "[7]": {"details": "PO 10 mg/kg vs IV 1 mg/kg (n=3)"}, "[8]": {"details": "male, SD, rat, whole blood, IV 1 mg/kg (n=3)"}, "[9]": {"details": "male, SD, rat, whole blood, PO 10 mg/kg (n=3)"}, "[10]": {"details": "female, ICR, mouse, whole blood, IV 1 mg/kg (n=3)"}, "[11]": {"details": "female, ICR, mouse, whole blood, PO 10 mg/kg (n=3)"}}}
{"compound": "CC1OCCCn2c(c3c4cc(ccc42)-c2csc(n2)CC(NC(=O)C2C(C)C2C)C(=O)N2NC(C(=O)OCC(C)(C)C3)C3CC2C3)-c2cc(N3CCN(C4COC4)CC3)cnc21", "note": "[Example 198, (1r,2R,3S)-N-((1^5S,6^4S,4S,Z)-1^2-(4-(oxetan-3-yl)piperazin-1-yl)-1^5,10,10-trimethyl-5,7-dioxo-1^8 ,1^9-dihydro-1^5H,1^7H-8-oxa-6^2,6^3-diaza-1(13,15)-pyrido[3',2':7,8][1,5]oxazonino[5,6-a]indola-2(4 ,2)-thiazola-6(2,4)-bicyclo[3.1.1]heptanacycloundecaphane-4-yl)-2,3-dimethylcyclopropane-1-ca rboxamide]", "values": [{"measurement": "F", "setting": "[1]; [7]", "value": 32.4}, {"measurement": "clearance", "setting": "[1]; [8]", "value": 2.22, "unit": "mL/min/kg"}, {"measurement": "half-life", "setting": "[1]; [8]", "value": 7.22, "unit": "h"}, {"measurement": "AUC(0-t)", "setting": "[1]; [8]", "value": 6940, "unit": "ng·h/mL"}, {"measurement": "Cmax", "setting": "[1]; [8]", "value": 6060, "unit": "ng/mL"}, {"measurement": "Vd", "setting": "[1]; male, SD, rat, whole blood, IV 1 mg/kg (n=3), read-out: Vss", "value": 1.08, "unit": "L/kg"}, {"measurement": "AUC(0-t)", "setting": "[1]; [9]", "value": 22500, "unit": "ng·h/mL"}, {"measurement": "Cmax", "setting": "[1]; [9]", "value": 2060, "unit": "ng/mL"}, {"measurement": "Tmax", "setting": "[1]; male, SD, rat, whole blood, PO 10 mg/kg (n=3), read-out: Tmax", "value": 3.33, "unit": "h"}, {"measurement": "IC50", "setting": "[2]", "value": 8.4, "unit": "nM"}, {"measurement": "IC50", "setting": "[3]", "value": 0.37, "unit": "nM"}, {"measurement": "F", "setting": "[4]; [7]", "value": 54.0}, {"measurement": "AUC(0-t)", "setting": "[4]; [10]", "value": 2450, "unit": "ng·h/mL"}, {"measurement": "clearance", "setting": "[4]; [10]", "value": 5.75, "unit": "mL/min/kg"}, {"measurement": "half-life", "setting": "[4]; [10]", "value": 8.9, "unit": "h"}, {"measurement": "Cmax", "setting": "[4]; [10]", "value": 462, "unit": "ng/mL"}, {"measurement": "Vd", "setting": "[4]; female, ICR, mouse, whole blood, IV 1 mg/kg (n=3), read-out: Vss", "value": 4.66, "unit": "L/kg"}, {"measurement": "AUC(0-t)", "setting": "[4]; [11]", "value": 13200, "unit": "ng·h/mL"}, {"measurement": "Tmax", "setting": "[4]; [11]", "value": 2, "unit": "h"}, {"measurement": "Cmax", "setting": "[4]; [11]", "value": 1300, "unit": "ng/mL"}, {"measurement": "IC50", "setting": "[5]", "value": 2, "unit": "nM"}, {"measurement": "IC50", "setting": "[6]", "value": 0.09, "unit": "nM"}]}
